# Reference: patent publication US7763625B2, “Agents for treating migraine” (Kyowa Hakko Kirin Co., Ltd., priority 2004, dated 2010)
# Test system: basilar (cerebral) arteries
# Experiment: Contractile effects on basilar arteries (suppression of adenosine-induced relaxation of isolated cerebral artery rings)
# Parameters: species or system Dogs
# Conditions: isolated dog basilar artery rings relaxed with adenosine; test compound added cumulatively; in comparison with the Vehicle group
# Source text: Dogs were anesthetized by intravenous injection of sodium pentobarbital, after which they were euthanized by exsanguination and subjected to craniotomy.
# The basilar (cerebral) arteries were removed and cut into rings segments of about 2 mm in width. Each ring segment was fixed with a silk thread to a needle cut into about 2 mm in length. The needle was attached to a holder provided in an Easy-Magnus System (Model no. UC-2; IWASHIYA KISHIMOTO MEDICAL INSTRUMENTS); the ring segments were immersed in a nutritive solution and allowed to stabilize at a resting tension of 0.2 g (1.96 mN) for more than 60 minutes. Into the organ bath (2 mL) of the Easy-Magnus System, the cerebral artery was relaxed by application of 2 μL of 10 mmol/L adenosine aqueous solution. After that, the test compound was added cumulatively; 1 μL of 0.2 mmol/L dimethylsulfoxide solution, 1 μL of 0.4 mmol/L dimethylsulfoxide solution, and 0.7 μL of 2 mmol/L dimethylsulfoxide solution in order (Test compound-added group). Separately, in the same manner as in the Test compound-added group, dimethylsulfoxide alone was cumulatively added in place of the test compound (Vehicle group). The contraction of the cerebral artery was recorded on a recorder (Yokogawa) from an isometric force transducer (Nihon Kohden) connected to the holder, to which the ring was fixed, through a strain-pressure amplifier (Nihon Kohden). […]
smiles,measurement,value
CCn1c(=O)c2c(nc(/C=C/c3ccc(OC)c(OC)c3)n2C)n(CC)c1=O [Compound 2],suppression of the adenosine-induced relaxation of the cerebral artery,dose-dependently and significantly suppressed
